Test results from patent publication US10344060B2 (priority 2013, dated 2019).
“And” between values parts separate entries of the source, which are not always exact repeats. Equal entries are not always repeated. Where two headings read alike, the source gives them in different places.

Tests used:
Assay in all cases: cell-based
[1] = target: T1, hNav1.7 (Homo sapiens, UniProt Q15858); details: for IC50: read-out: IC50 (μM) Nav1.7
[2] = target: hNav1.5 (Homo sapiens, UniProt Q14524); details: read-out: IC50 (μM) Nav1.5
[3] = target: T2, hNav1.4 (Homo sapiens, UniProt P35499); format: cell-based; details: for IC50: IonWorks Quattro, read-out: IC50 (μM) Nav1.4; for Nav1.4/Nav1.7: ratio of IonWorks Quattro IC50 values
[4] = target: hNav1.3 (Homo sapiens, UniProt Q9NY46); details: IonWorks Quattro, read-out: IC50 (μM) Nav1.3
[5] = target: T1, hNav1.7; format: cell-based; details: PatchXpress, read-out: PX hNav1.7 Tonic IC50
[6] = target: hNav1.6 (Homo sapiens, UniProt Q9UQD0); format: cell-based; details: Table 15
[7] = target: T2, hNav1.4; format: cell-based; details: Table 12

Sequence of hNav1.3 (Q9NY46 whole entry): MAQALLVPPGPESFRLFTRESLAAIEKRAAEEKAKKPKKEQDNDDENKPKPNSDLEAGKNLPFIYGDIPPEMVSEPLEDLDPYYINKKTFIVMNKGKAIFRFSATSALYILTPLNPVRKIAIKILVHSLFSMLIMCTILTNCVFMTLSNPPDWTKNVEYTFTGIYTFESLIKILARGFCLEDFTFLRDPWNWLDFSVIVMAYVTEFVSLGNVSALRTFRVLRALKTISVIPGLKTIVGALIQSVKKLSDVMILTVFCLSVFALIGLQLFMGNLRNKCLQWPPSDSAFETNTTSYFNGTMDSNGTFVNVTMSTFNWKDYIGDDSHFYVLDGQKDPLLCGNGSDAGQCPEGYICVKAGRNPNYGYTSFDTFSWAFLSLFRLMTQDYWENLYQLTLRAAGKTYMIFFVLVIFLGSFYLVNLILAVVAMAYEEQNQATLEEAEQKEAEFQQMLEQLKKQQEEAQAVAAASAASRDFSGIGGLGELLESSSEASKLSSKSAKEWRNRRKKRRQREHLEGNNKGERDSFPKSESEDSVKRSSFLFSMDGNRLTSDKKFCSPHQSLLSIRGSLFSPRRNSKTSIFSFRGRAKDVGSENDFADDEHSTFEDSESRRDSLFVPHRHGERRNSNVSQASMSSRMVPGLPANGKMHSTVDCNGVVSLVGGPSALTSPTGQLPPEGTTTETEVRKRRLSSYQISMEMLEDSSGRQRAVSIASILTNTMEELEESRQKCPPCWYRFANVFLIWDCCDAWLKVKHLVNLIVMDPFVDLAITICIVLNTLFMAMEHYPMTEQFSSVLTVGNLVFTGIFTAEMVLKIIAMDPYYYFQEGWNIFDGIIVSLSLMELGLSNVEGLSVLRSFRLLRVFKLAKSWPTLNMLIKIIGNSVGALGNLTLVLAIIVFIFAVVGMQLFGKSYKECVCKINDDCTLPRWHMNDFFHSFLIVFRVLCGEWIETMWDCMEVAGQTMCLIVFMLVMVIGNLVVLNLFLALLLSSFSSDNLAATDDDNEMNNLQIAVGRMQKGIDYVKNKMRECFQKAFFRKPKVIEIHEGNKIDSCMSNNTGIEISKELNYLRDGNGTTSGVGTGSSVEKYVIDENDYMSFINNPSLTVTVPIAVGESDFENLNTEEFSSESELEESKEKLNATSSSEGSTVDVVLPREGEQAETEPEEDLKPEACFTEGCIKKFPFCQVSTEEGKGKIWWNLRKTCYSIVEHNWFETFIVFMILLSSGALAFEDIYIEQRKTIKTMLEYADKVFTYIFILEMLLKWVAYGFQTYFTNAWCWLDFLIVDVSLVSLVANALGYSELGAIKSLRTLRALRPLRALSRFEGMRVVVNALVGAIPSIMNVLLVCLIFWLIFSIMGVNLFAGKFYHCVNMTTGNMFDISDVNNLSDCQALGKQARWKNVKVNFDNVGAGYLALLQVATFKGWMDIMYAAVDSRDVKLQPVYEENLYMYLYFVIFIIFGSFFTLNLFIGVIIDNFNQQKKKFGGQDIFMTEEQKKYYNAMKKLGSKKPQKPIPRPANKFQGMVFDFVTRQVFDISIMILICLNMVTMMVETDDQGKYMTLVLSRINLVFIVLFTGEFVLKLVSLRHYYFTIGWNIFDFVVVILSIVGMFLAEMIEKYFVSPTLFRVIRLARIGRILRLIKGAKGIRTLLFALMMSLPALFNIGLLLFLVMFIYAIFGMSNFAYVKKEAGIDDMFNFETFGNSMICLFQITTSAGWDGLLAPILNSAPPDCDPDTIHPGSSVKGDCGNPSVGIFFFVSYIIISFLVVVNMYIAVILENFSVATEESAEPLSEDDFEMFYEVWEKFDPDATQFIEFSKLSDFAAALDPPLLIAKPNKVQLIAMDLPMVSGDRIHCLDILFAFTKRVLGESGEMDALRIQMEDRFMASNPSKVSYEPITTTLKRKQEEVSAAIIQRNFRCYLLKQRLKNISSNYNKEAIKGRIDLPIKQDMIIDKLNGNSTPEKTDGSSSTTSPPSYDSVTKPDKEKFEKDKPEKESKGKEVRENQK
T1 sequence (Q15858 whole entry): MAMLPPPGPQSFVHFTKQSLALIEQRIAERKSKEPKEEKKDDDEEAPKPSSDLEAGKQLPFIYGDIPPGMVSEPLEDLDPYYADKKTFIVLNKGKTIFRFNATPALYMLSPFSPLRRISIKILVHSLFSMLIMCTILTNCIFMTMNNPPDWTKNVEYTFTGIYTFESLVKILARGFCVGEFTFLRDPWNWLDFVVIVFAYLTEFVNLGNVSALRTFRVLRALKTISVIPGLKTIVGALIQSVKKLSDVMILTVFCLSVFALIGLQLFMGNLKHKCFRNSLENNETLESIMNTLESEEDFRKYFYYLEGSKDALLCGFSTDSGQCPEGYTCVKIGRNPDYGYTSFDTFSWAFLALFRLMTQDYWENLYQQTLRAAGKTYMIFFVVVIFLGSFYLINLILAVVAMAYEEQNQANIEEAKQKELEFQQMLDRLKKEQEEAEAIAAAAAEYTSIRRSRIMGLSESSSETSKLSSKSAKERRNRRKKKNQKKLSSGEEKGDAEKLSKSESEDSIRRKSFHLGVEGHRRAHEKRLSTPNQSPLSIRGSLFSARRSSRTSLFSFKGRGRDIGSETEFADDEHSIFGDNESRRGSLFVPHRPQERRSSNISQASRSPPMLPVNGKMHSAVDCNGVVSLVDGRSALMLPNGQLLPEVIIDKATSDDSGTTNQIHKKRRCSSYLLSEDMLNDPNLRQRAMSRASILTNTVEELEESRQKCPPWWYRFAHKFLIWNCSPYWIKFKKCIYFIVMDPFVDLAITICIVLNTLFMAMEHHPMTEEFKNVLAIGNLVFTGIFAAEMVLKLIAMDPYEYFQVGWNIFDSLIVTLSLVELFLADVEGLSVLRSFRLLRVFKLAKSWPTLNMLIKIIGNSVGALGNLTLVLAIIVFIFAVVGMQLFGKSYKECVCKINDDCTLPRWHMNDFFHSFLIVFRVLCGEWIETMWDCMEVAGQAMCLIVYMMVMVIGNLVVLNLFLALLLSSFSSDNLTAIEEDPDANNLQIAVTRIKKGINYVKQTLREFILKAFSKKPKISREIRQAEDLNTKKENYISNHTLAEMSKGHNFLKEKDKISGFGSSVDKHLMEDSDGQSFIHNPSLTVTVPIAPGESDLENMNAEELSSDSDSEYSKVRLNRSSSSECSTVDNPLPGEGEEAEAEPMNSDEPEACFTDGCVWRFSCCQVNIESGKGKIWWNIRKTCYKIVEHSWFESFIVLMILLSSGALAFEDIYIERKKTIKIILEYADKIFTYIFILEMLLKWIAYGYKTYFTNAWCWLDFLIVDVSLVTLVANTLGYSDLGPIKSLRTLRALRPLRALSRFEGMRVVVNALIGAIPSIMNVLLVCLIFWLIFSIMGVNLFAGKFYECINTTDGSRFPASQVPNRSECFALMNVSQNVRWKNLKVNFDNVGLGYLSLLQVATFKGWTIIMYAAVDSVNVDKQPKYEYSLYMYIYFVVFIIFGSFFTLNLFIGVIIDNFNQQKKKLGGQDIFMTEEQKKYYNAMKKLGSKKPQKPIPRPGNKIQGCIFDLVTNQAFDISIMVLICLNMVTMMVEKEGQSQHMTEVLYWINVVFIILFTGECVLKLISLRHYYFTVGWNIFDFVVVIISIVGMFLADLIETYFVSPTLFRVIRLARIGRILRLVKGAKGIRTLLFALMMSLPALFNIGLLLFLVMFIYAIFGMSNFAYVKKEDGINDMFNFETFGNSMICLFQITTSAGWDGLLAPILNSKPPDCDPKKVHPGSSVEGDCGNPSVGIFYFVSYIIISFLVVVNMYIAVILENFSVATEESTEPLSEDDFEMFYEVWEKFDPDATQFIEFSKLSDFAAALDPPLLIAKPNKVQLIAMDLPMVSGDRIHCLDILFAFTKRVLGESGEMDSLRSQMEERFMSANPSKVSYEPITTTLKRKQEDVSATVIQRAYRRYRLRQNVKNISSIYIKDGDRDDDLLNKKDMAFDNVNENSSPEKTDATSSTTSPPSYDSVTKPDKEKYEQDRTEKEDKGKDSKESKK

## CC[C@H](C)[C@H](NC(=O)[C@H](C)NC(=O)[C@H](CCCCN)NC(=O)[C@H](CCCNC(=N)N)NC(=O)[C@@H]1CSSC[C@@H]2NC(=O)[C@H](C)NC(=O)[C@H](CCCNC(=N)N)NC(=O)[C@H](CCCCN)NC(=O)[C@H](CO)NC(=O)[C@H](CC(=O)O)NC(=O)[C@@H]3CSSC[C@H](NC(=O)[C@H](CCCNC(=N)N)NC(=O)[C@H](CC(C)C)NC(=O)CNC(=O)[C@H](CCC(=O)O)NC(=O)[C@H](CSSC[C@H](NC(=O)[C@@H](N)Cc4ccc(O)cc4)C(=O)N[C@@H](CCC(N)=O)C(=O)N[C@@H](CCCCN)C(=O)N[C@@H](Cc4c[nH]c5ccccc45)C(=O)N[C@@H](CCSC)C(=O)N[C@@H](Cc4c[nH]c5ccccc45)C(=O)N[C@@H]([C@@H](C)O)C(=O)N3)NC2=O)C(=O)N[C@@H](CCCCN)C(=O)N[C@@H](CC(C)C)C(=O)N[C@@H](Cc2c[nH]c3ccccc23)C(=O)N1)C(N)=O [compound 23]
[1]
  IC50: 0.03 µM
[2]; IonWorks Quattro, Table 6
  IC50: > 5 µM
[3]; Table 6
  IC50: 0.29 µM
  Nav1.4/Nav1.7: 10
[4]; Table 6
  IC50: 0.25 µM

## CC[C@H](C)[C@H](NC(=O)[C@@H](NC(=O)[C@H](CCCCN)NC(=O)[C@H](CCCNC(=N)N)NC(=O)[C@@H]1CSSC[C@@H]2NC(=O)[C@H](C)NC(=O)[C@H](CCCNC(=N)N)NC(=O)[C@H](CCCCN)NC(=O)[C@H](CO)NC(=O)[C@H](CC(=O)O)NC(=O)[C@@H]3CSSC[C@H](NC(=O)[C@H](CCCNC(=N)N)NC(=O)[C@H](CC(C)C)NC(=O)CNC(=O)[C@H](CCC(=O)O)NC(=O)[C@H](CSSC[C@H](NC(=O)[C@@H](N)Cc4ccc(O)cc4)C(=O)N[C@@H](CCC(N)=O)C(=O)N[C@@H](CCCCN)C(=O)N[C@@H](Cc4c[nH]c5ccccc45)C(=O)N[C@@H](CCSC)C(=O)N[C@@H](Cc4c[nH]c5ccccc45)C(=O)N[C@@H]([C@@H](C)O)C(=O)N3)NC2=O)C(=O)N[C@@H](CCCCN)C(=O)N[C@@H](CC(C)C)C(=O)N[C@@H](Cc2c[nH]c3ccccc23)C(=O)N1)[C@@H](C)CC)C(=O)O [compound 1]
[1]
  IC50: 0.17 µM
[2]; IonWorks Quattro, Table 6
  IC50: > 5 µM
[5]; tonic, Table 11
  IC50: 0.0131 µM

## CC[C@H](C)[C@H](NC(=O)CNC(=O)[C@H](CCCCN)NC(=O)[C@H](CCCNC(=N)N)NC(=O)[C@@H]1CSSC[C@@H]2NC(=O)[C@H](C)NC(=O)[C@H](CCCNC(=N)N)NC(=O)[C@H](CCCCN)NC(=O)[C@H](CO)NC(=O)[C@H](CC(=O)O)NC(=O)[C@@H]3CSSC[C@H](NC(=O)[C@H](CCC(=O)O)NC(=O)[C@H](CC(C)C)NC(=O)CNC(=O)[C@H](CCC(=O)O)NC(=O)[C@H](CSSC[C@H](NC(=O)[C@@H](N)Cc4ccc(O)cc4)C(=O)N[C@@H](CCC(N)=O)C(=O)N[C@@H](CCCCN)C(=O)N[C@@H](Cc4c[nH]c5ccccc45)C(=O)N[C@@H](CCSC)C(=O)N[C@@H](Cc4c[nH]c5ccccc45)C(=O)N[C@@H]([C@@H](C)O)C(=O)N3)NC2=O)C(=O)N[C@@H](CCCCN)C(=O)N[C@@H](CC(C)C)C(=O)N[C@@H](Cc2c[nH]c3ccccc23)C(=O)N1)C(N)=O [compound 134]
[1]; ratio of IonWorks Quattro IC50 values, Nav1.4 over Nav1.7
  Nav1.4/Nav1.7: 17 and 13
[2]
  IC50: 11.1 µM

## CC[C@H](C)[C@H](NC(=O)[C@H](CCCCN)NC(=O)[C@H](CCCNC(=N)N)NC(=O)[C@@H]1CSSC[C@@H]2NC(=O)[C@H](C)NC(=O)[C@H](CCCNC(=N)N)NC(=O)[C@H](CCCCN)NC(=O)[C@H](CO)NC(=O)[C@H](CC(=O)O)NC(=O)[C@@H]3CSSC[C@H](NC(=O)[C@H](CCC(=O)O)NC(=O)[C@H](CC(C)C)NC(=O)CNC(=O)[C@H](CCC(=O)O)NC(=O)[C@H](CSSC[C@H](NC(=O)[C@@H](N)Cc4ccc(O)cc4)C(=O)N[C@@H](CCC(N)=O)C(=O)N[C@@H](CCCCN)C(=O)N[C@@H](Cc4c[nH]c5ccccc45)C(=O)N[C@@H](CCSC)C(=O)N[C@@H](Cc4c[nH]c5ccccc45)C(=O)N[C@@H]([C@@H](C)O)C(=O)N3)NC2=O)C(=O)N[C@@H](CCCCN)C(=O)N[C@@H](CC(C)C)C(=O)N[C@@H](Cc2c[nH]c3ccccc23)C(=O)N1)C(=O)N[C@@H](Cc1cn(CCCOCCOCCOCCOCCOCCOCCOCCOCCOCCOCCN)nn1)C(N)=O [compound 188]
[2]; IonWorks Quattro, Table 9
  IC50: 20.1 µM
[3]; Table 9
  IC50: > 5 µM
  Nav1.4/Nav1.7: 1
[4]; Table 9
  IC50: > 5 µM

## CC[C@H](C)[C@H](NC(=O)[C@@H](NC(=O)[C@H](CCCCN)NC(=O)[C@H](CCCNC(=N)N)NC(=O)[C@@H]1CSSC[C@@H]2NC(=O)[C@H](C)NC(=O)[C@H](CCCNC(=N)N)NC(=O)[C@H](CCCCN)NC(=O)[C@H](CO)NC(=O)[C@H](CC(=O)O)NC(=O)[C@@H]3CSSC[C@H](NC(=O)[C@H](CCC(=O)O)NC(=O)[C@H](CC(C)C)NC(=O)CNC(=O)[C@H](CCC(=O)O)NC(=O)[C@H](CSSC[C@H](NC(=O)[C@@H](N)Cc4ccc(O)cc4)C(=O)N[C@@H](CCC(N)=O)C(=O)N[C@@H](CCCCN)C(=O)N[C@@H](Cc4c[nH]c5ccccc45)C(=O)N[C@@H](CCSC)C(=O)N[C@@H](Cc4c[nH]c5ccccc45)C(=O)N[C@@H](Cc4cn(CCCOCCOCCOCCOCCOCCOCCOCCOCCOCCOCCN)nn4)C(=O)N3)NC2=O)C(=O)N[C@@H](CCCCN)C(=O)N[C@@H](CC(C)C)C(=O)N[C@@H](Cc2c[nH]c3ccccc23)C(=O)N1)[C@@H](C)CC)C(N)=O [compound 171]
[2]; IonWorks Quattro, Table 9
  IC50: 18.7 µM
[3]; Table 9
  IC50: > 5 µM
  Nav1.4/Nav1.7: 1
[4]; Table 9
  IC50: > 5 µM

## CC[C@H](C)[C@H](NC(=O)[C@H](CCCNC(=N)N)NC(=O)[C@H](CCCCN)NC(=O)[C@H](CCCNC(=N)N)NC(=O)[C@@H]1CSSC[C@@H]2NC(=O)[C@H](C)NC(=O)[C@H](CCCNC(=N)N)NC(=O)[C@H](CCCCN)NC(=O)[C@H](CO)NC(=O)[C@H](CC(=O)O)NC(=O)[C@@H]3CSSC[C@H](NC(=O)[C@H](CCCNC(=N)N)NC(=O)[C@H](CC(C)C)NC(=O)CNC(=O)[C@H](CCC(=O)O)NC(=O)[C@H](CSSC[C@H](NC(=O)[C@@H](N)Cc4ccc(O)cc4)C(=O)N[C@@H](CCC(N)=O)C(=O)N[C@@H](CCCCN)C(=O)N[C@@H](Cc4c[nH]c5ccccc45)C(=O)N[C@@H](CCSC)C(=O)N[C@@H](Cc4c[nH]c5ccccc45)C(=O)N[C@@H]([C@@H](C)O)C(=O)N3)NC2=O)C(=O)N[C@@H](CCCCN)C(=O)N[C@@H](CC(C)C)C(=O)N[C@@H](Cc2c[nH]c3ccccc23)C(=O)N1)C(N)=O [compound 108]
[2]; IonWorks Quattro, Table 6
  IC50: 1.8 µM
[3]; Table 6
  IC50: 0.14 µM
[4]; Table 6
  IC50: 0.06 µM

## C#CC[C@H](NC(=O)[C@@H](N)CCC(=O)O)C(=O)N[C@@H](Cc1ccc(O)cc1)C(=O)N[C@H]1CSSC[C@@H]2NC(=O)[C@@H]3CSSC[C@@H](C(=O)N[C@@H](CCCNC(=N)N)C(=O)N[C@@H](CCCCN)C(=O)N[C@@H](CCC(=O)O)C(=O)N[C@H](C(N)=O)[C@@H](C)CC)NC(=O)[C@H](Cc4c[nH]c5ccccc45)NC(=O)[C@H](CC(C)C)NC(=O)[C@H](CCCCN)NC(=O)[C@H](CSSC[C@H](NC(=O)[C@H]([C@@H](C)O)NC(=O)[C@H](Cc4c[nH]c5ccccc45)NC(=O)[C@H](CCCC)NC(=O)[C@H](Cc4c[nH]c5ccccc45)NC(=O)[C@H](CCCCN)NC(=O)[C@H](CCC(N)=O)NC1=O)C(=O)N[C@@H](CC(=O)O)C(=O)N[C@@H](CO)C(=O)N[C@@H](CCCCN)C(=O)N[C@@H](CCCNC(=N)N)C(=O)N[C@@H](C)C(=O)N3)NC(=O)[C@H](CCCNC(=N)N)NC(=O)[C@H](CC(C)C)NC(=O)CNC(=O)[C@H](CCC(=O)O)NC2=O [compound 707]
[6]; ratio of PX tonic IC50 values
  Nav1.6/Nav1.7: 236
[6]; read-out: PX hNav1.6 Tonic IC50
  IC50: 0.174 µM
[5]; Table 12, tonic block
  IC50: 0.000738 µM
[7]; PatchXpress, tonic block, read-out: PX hNav1.4 Tonic IC50
  IC50: 0.112 µM
[7]; ratio of PX tonic IC50 values
  Nav1.4/Nav1.7: 152
